Experimental data from patent US8906897B2, “Antimicrobial agents based on hemin derivatives” (Obschestvo S Ogranichennoi Otvetstvennostiyu …, priority 2009, dated 2014).

Tests used:
Type in all cases: cell-based
Candida albicans No. 927 = assay: Antifungal activity, culture growth with pH indicator; set-up: key to Test culture growth at various dilutions of the agent: (−) No growth; the indicator is blue; (±) Weak growth; the indicator is yellow, but the precipitate of grown cells looks as a diffuse spot; (+) Strong growth; the indicator is yellow, and the cell precipitate looks as a compact spot
Summary of the method: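 Museum strains grown one day on glucose-peptone-yeast medium at 32° C; compounds two-fold serially diluted (DMSO ≤5% for insoluble ones) in synthetic medium with Bromocresol Blue, ~10^3 CFU/mL. Growth read as blue-to-yellow shift (pH 5.5→4.5) after 1 h at 32° C with stirring, then 27° C: C. neoformans 2 and 5 days, C. albicans 1 and 4 days.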

[1] = tested on: Staphylococcus aureus No. 25923 ATCC; assay: Specific activity against resistant bacterial strains; settings: St. aureus 25923; 24 h, 36° C.
Method: (§1) The tested agents were water-soluble hemin derivatives (compounds VII and XVIII) or DMSO-soluble derivatives (compounds VIII, XV, and XIV). Vancomycin was the reference compound. Each compound was tested in three replicas.
(§2) Sterile single-use flat-bottomed 96-well plates, Petri dishes, pipettes, tips, and test tubes (Pan-Eco, Moscow) were used in the study.
(§3) The nutritional media used were as follows. A working Mueller Hinton broth was prepared from dry media (Mueller Hinton broth, Acumedia, Baltimore) and sterilized by autoclaving at 121° C. for 15 min.
(§4) Staphylococcus aureus was cultured on the Tripticase Soy Agar (BBL) commercially available dry medium. Enterococcus faecalis was cultured on the Columbia Agar Base (BBL) commercially available dry medium. These media were sterilized by autoclaving at 121° C. for 15 min.
(§5) Bacterial inoculum was fixed and equal to 5×10^5 CFU/mL.
(§6) For water-soluble compounds, wells from 2nd through 8th were added with the solvent (water) in an amount of 15 μL per well, then the 1st well was added with 30 μL of the stock solution of the tested compound in water with a concentration of 1×10^3M, and the concentration was adjusted to 0.007×10^3 M by serial twofold dilutions. A 10-μL portion was taken from every well, and 190 μL of the bacterial culture (10^5 CFU) was added per well.
(§7) For DMSO-soluble compounds, wells from 2nd through 8th were added with the solvent (DMSO) in an amount of 10 μL per well, then the 1st well was added with 20 μL of the stock solution of the tested compound in […] with a concentration of 5×10^3M, and the concentration was adjusted to 0.039×10^3 M by serial twofold dilutions. A 2-μL portion was taken from each well, and 198 μL of the bacterial culture (10^5 CFU) was added per well.
(§8) The control comprised wells free of tested compounds (culture growth control). In addition, purity control of nutritional media and solvents was used. Plates were incubated in a thermostat at 36° C. for 24 hours.
(§9) Culture growth was evaluated visually by comparison of how microorganisms grew in the presence of tested compounds and in the absence of them. MSC (the minimal suppressing concentration) was set equal to the last dilution of a tested agent which suppressed bacterial culture growth.

[2] = tested on: Staphylococcus epidermidis No. 533; assay: as above; settings: St. epiderm 533; 24 h, 36° C.
Method: as §1, §2, §3, §4, §5, §6, §7, §8, §9

[3] = tested on: Staphylococcus aureus No. 100 KC; assay: as above; settings: St. aureus 100 KC; 24 h, 36° C.
Method: as §1, §2, §3, §4, §5, §6, §7, §8, §9

[4] = tested on: Enterococcus faecalis No. 559; assay: as above; settings: Ent. faecalis 559; 24 h, 36° C.
Method: as §1, §2, §3, §4, §5, §6, §7, §8, §9

| Structure (SMILES) | concentration with practically fungicidal effect (Candida albicans No. 927; control inoculations from wells on day 1 to 4 post-exposure) | Test culture growth at various dilutions of the agent (Candida albicans No. 927; dilution 0: 1 × 10^−4 M) | Test culture growth at various dilutions of the agent (Candida albicans No. 927; dilution : 2 of 1 × 10^−4 M) | Test culture growth at various dilutions of the agent (Candida albicans No. 927; dilution : 4 of 1 × 10^−4 M) | Test culture growth at various dilutions of the agent (Candida albicans No. 927; dilution : 8 of 1 × 10^−4 M) | Test culture growth at various dilutions of the agent (Candida albicans No. 927; dilution : 16 of 1 × 10^−4 M) | Test culture growth at various dilutions of the agent (Candida albicans No. 927; dilution : 32 of 1 × 10^−4 M) | Test culture growth at various dilutions of the agent (Candida albicans No. 927; dilution : 64 of 1 × 10^−4 M) | MICs for hemin derivatives against Gr+ strains [1] | MICs for hemin derivatives against Gr+ strains [2] | MICs for hemin derivatives against Gr+ strains [3] | MICs for hemin derivatives against Gr+ strains [4] |
| --- | --- | --- | --- | --- | --- | --- | --- | --- | --- | --- | --- | --- |
| C=CC1=C(C)c2cc3[n-]c(cc4nc(cc5[n-]c(cc1n2)c(C)c5CCC(=O)N[C@@H](CCC(=O)N[C@@H](CCCNC(=N)N)C(=O)OC)C(=O)N[C@@H](CCCNC(=N)N)C(=O)OC)C(CCC(=O)N[C@@H](CCC(=O)N[C@@H](CCCNC(=N)N)C(=O)OC)C(=O)N[C@@H](CCCNC(=N)N)C(=O)OC)=C4C)c(C)c3C=C.[Cl-].[Fe+3] [Compound XVIII, 6,7-bis[bis(N^α-L-Arginyl Methyl Ester)-L-Glutamyl]-Protohemin IX] | about 5×10^−5 M | − | − | − | ± | ± | ± | ± | 7.8e-07 M | 0.78 µM | 1.56 µM | 0.78 µM |
| C=CC1=C(C)c2cc3[n-]c(cc4nc(cc5[n-]c(cc1n2)c(C)c5CCC(=O)N[C@@H](CCCNC(=N)N)C(=O)OC)C(CCC(=O)N[C@@H](CCCNC(=N)N)C(=O)OC)=C4C)c(C)c3C=C.[Cl-].[Fe+3] [VII] |  | ± | + | + | + | + | + | + | 2.5. ×10^−5 M | 25 µM | 50 µM | 25 µM |
| C=CC1=C(C)c2cc3[n-]c(cc4[n-]c(cc5nc(cc1n2)C(C)=C5C=C)c(C)c4CCC(=O)O)c(CCC(=O)O)c3C.[Cl-].[Fe+3] [Hem, hemin] |  | ± | + | + | + | + | + | + | >1e-05 M | >10 µM | >10 µM | >10 µM |
| C=CC1=C(C)c2cc3[n-]c(cc4nc(cc5[n-]c(cc1n2)c(C)c5CCC(=O)N[C@@H](CO)C(=O)OC)C(CCC(=O)N[C@@H](CO)C(=O)OC)=C4C)c(C)c3C=C.[Cl-].[Fe+3] [VIII] |  | ± | ± | ± | + | + | + | + | 2.6e-06 M | 5.21 µM | 6.25 µM | 3.12 µM |
| C=CC1=C(C)c2cc3[n-]c(cc4nc(cc5[n-]c(cc1n2)c(C)c5CCC(=O)NCCO)C(CCC(=O)NCCO)=C4C)c(C)c3C=C.[Cl-].[Fe+3] [Compound XIV, Protohemin IX 6,7-bis-N-(2-Hydroxyethyl)amide] |  | ± | + | + | + | + | + | + | 5.21e-06 M | 5.21 µM | >50 µM | 6.25 µM |
